Experimental data reported in BindingDB's records for doi:10.1021/jm049237m (Wyeth Research, 2004).

Biological target: Proto-oncogene tyrosine-protein kinase Src (Homo sapiens, UniProt P12931)
Experiment: Homogeneous Time-resolved Fluorescence (HTRF) Assay
Details: pH 7.5; 37 °C
Protocol: Kinase assays were performed using the europium/APC detection format (LANCE, Perkin Elmer). HTRF is based on the proximity of europium cryptate (donor fluorophore)-labeled antiphosphotyrosine and streptavidin labeled with APC(allophycocyanin), which have been brought together by a binding reaction. When the two entities come into close proximity and upon excitation, energy transfer occurs and APC re-emits at 665 nm.

Sequence of Proto-oncogene tyrosine-protein kinase Src (P12931 2-536 limits assumed): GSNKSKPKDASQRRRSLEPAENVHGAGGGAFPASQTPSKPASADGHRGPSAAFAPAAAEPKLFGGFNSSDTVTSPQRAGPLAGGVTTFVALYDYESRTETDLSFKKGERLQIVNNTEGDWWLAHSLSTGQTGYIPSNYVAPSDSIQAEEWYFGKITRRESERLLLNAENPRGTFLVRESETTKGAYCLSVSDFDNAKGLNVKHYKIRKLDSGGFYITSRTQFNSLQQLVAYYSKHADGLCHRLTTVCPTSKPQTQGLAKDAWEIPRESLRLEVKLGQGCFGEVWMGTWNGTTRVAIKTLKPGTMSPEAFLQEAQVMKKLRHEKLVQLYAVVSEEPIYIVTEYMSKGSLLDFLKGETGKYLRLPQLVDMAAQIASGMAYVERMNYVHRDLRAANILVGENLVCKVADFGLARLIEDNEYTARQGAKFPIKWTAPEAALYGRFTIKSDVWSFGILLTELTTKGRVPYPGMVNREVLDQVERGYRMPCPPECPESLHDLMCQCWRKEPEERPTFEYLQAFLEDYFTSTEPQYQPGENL

Q: With `COc1cc(Nc2c(C#N)cnc3cc(-c4ccccc4CN4CCN(C)CC4)sc23)c(Cl)cc1Cl` [7-[(2,4-dichloro-5-methoxyphenyl)amino]-2-{2-[(4-methylpiperazin-1-yl)methyl]phenyl}thieno[3,2-b]pyridine-6-carbonitrile] as the compound, how does the IC50 read?
A: > 10 µM
